Columns and labels:
HrtBA = conditions: 2 mM ATP; lipid nanodiscs; 37 °C; activation of ATPase; site in HrtB dimer
[1] = target: HrtB permease subunit of the heme efflux pump HrtBA from Corynebacterium diphtheriae (Corynebacterium diphtheriae NCTC13129); assay: crystal structure

EC50 (HrtBA) [nM] | Compound | stoichiometry N [1]
900 | C=CC1=C(C)C2=Cc3c(C=C)c(C)c4[n]3[Fe+][n]3c(c(C)c(CCC(=O)O)c3=CC3=NC(=C4)C(C)=C3CCC(=O)O)=CC1=N2 [heme] | 
 | HrtB permease subunit of the heme efflux pump HrtBA from Corynebacterium diphtheriae (natural protein) | 2

— paper PMC9271180 (Proceedings of the National Academy of Sciences of the …, 2022)
